From patent publication US20140113874A1, “Modified Compstatin With Improved Stability And Binding Properties” (THE TRUSTEES OF THE UNIVERSITY OF PENNSYLVANIA, priority 2010, published 2014) come the findings set out here.

A word on the Kd: it is a measure of binding affinity in units of concentration. A low value points to a tighter complex. Usually koff stands for the first-order rate constant of dissociation. For orientation: kon means the second-order rate constant of association. The low end stands for slow association, the high end for fast association.

One assay addresses C3b (Homo sapiens, UniProt P01024). The assay can be described thus: Biacore SPR kinetic analysis on captured biotinylated C3b. The conditions noted are these: 1:1 binding model; average of multiple datasets. Here is the method: The interaction of the compstatin analogs with C3b was characterized using a Biacore 3000 instrument (GE Healthcare, Corp., Piscataway, N.J.). The running buffer was PBS, pH 7.4 (10 mM sodium phosphate, 150 mM NaCl) with 0.005% Tween-20. Biotinylated C3b was captured site-specifically on a streptravidin chip at about 3000, 4000 and 5000 RU density; an untreated flowcell was used as a reference surface. For kinetic analysis, sets of five samples of increasing concentrations were injected over the chip surface one after the other in a single cycle. […] The data analysis was performed using BiaEvaluation. The processed signals were fitted to a 1:1 binding model and kinetic constants were extracted. […] 2 min injections at 30 ul/min were performed, after which a 3 min dissociation was monitored. […] Data analysis followed using Scrubber (BioLogic Software, Campbell, Australia). The processed signals were globally fitted to a Langmuir 1:1 binding isotherm and kinetic constants were extracted.

For assay [1], the system named is classical pathway of complement activation. The experiment in a line: ELISA-based complement inhibition assay (antigen-antibody complex initiated, C3b deposition). It is filed as biochemical. Particulars: for relative activity (rank order) in inhibition of antigen-antibody complex-initiated complement activation: FIG. 4, representative result; for IC50: read-out: IC50, concentration at which the peptides inhibit complement activation by 50%, plasma 1:80 in VB++, average of five datasets. Here is the method: An ELISA-based assay was performed to assess the complement inhibitory ability of the compstatin analogs. Briefly, an antigen-antibody complex was used as an initiator of the classical pathway of complement activation. […] Incubation followed to allow complement activation. The deposition of C3b on the plate was measured by a polyclonal anti-C3 antibody. The percentage of inhibition was plotted against the compstatin concentration and fitted to a logistic dose-response function using OriginPro 8.
(In general: ELISA stands for enzyme-linked immunosorbent assay.)

A further assay addresses Biotinylated C3b (UniProt P01024). The experiment in a line: SPR (Biacore 3000), single-cycle kinetics, peptide over biotinylated C3b captured on streptavidin chip, 1:1 model. (In general: Surface plasmon resonance follows binding to a sensor surface in real time, without labels.)
Assay [2] deals with T1, Complement C3 (in plasma) (UniProt P01024 23-1663, limits assumed). The assay can be described thus: cell-based or functional assay.
The target in assay [3] is T1, Complement C3 (in plasma). The assay can be described thus: cell-based or functional assay. This is another data set of the same source.

Numbered stars: 1 amine (or outer) side, 2 acyl side, 3 side chain; on linkers, the order of the positions; unused ones are H or OH. Bridge positions count the residues as written; N and C are the ends. Square brackets hold non-standard residues; d marks the D form. Peptide text beside a SMILES is read from it. Trp(1-Me) = Cn1cc(C[C@H](N)C(=O)O)c2ccccc21; Abu(4-yl) = O=C([C@H](CC[*:3])N[*:1])[*:2]; NMeI = CC[C@H](C)[C@H](NC)C(=O)O; Sar = CNCC(=O)O

T1 sequence (P01024 23-1663 limits assumed): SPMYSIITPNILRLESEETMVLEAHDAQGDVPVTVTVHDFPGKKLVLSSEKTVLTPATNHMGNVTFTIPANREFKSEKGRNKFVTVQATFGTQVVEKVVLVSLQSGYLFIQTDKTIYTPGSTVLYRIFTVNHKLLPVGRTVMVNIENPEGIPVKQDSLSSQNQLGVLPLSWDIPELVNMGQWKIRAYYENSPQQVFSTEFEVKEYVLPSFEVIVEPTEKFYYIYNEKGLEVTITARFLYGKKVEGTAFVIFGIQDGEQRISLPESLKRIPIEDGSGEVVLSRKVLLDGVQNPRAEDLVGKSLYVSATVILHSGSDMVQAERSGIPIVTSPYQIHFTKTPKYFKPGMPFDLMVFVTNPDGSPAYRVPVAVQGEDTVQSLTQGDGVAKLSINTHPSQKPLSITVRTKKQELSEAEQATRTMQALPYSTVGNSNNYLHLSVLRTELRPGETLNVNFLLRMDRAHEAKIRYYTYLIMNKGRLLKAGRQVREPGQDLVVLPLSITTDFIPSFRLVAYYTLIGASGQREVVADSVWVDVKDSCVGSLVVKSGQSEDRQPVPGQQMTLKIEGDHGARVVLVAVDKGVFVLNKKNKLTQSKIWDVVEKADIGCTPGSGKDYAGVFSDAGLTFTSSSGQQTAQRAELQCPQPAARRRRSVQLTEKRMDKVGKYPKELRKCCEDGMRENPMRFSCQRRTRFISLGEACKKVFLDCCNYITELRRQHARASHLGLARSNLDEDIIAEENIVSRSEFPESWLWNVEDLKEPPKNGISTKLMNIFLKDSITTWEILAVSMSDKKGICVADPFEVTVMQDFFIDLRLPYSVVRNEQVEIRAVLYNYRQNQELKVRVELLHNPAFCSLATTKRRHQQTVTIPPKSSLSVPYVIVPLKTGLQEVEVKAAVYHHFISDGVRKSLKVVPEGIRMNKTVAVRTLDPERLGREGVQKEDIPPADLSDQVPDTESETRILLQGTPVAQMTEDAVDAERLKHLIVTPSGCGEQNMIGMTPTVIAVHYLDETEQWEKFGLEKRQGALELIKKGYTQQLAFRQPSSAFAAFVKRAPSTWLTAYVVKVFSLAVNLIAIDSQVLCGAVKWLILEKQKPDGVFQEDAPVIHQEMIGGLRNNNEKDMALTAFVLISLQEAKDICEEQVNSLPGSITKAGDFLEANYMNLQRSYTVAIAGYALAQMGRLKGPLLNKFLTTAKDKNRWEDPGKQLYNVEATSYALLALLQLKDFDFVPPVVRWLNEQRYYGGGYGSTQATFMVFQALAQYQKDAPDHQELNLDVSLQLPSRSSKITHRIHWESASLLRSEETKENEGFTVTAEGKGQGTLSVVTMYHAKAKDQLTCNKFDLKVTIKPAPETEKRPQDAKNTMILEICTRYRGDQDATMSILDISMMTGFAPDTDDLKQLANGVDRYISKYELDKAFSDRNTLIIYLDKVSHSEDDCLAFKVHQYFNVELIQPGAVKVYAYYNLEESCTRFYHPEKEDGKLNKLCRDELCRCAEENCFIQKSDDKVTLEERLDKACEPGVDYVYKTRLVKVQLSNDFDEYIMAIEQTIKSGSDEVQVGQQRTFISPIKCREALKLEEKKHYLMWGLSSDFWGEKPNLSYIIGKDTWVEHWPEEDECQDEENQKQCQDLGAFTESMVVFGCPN
Sequence of C3b (P01024 23-667 limits assumed): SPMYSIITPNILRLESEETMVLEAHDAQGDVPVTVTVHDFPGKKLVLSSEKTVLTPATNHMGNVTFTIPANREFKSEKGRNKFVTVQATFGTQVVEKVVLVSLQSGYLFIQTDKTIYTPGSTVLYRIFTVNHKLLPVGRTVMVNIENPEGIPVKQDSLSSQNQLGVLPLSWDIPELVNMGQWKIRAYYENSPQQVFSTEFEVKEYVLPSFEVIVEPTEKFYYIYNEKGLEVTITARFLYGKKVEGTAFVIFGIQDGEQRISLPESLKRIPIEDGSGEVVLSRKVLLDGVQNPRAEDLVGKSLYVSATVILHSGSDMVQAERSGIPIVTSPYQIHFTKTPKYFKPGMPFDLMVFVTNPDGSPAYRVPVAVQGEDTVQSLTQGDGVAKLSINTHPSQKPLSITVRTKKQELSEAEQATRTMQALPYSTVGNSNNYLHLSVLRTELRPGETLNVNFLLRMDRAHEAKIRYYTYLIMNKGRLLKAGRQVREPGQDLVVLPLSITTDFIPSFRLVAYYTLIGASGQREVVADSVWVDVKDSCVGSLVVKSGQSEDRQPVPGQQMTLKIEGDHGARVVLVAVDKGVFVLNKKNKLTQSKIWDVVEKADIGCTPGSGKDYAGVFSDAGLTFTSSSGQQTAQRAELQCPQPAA
Sequence of C3b (P01024 749-1663 partner limits assumed): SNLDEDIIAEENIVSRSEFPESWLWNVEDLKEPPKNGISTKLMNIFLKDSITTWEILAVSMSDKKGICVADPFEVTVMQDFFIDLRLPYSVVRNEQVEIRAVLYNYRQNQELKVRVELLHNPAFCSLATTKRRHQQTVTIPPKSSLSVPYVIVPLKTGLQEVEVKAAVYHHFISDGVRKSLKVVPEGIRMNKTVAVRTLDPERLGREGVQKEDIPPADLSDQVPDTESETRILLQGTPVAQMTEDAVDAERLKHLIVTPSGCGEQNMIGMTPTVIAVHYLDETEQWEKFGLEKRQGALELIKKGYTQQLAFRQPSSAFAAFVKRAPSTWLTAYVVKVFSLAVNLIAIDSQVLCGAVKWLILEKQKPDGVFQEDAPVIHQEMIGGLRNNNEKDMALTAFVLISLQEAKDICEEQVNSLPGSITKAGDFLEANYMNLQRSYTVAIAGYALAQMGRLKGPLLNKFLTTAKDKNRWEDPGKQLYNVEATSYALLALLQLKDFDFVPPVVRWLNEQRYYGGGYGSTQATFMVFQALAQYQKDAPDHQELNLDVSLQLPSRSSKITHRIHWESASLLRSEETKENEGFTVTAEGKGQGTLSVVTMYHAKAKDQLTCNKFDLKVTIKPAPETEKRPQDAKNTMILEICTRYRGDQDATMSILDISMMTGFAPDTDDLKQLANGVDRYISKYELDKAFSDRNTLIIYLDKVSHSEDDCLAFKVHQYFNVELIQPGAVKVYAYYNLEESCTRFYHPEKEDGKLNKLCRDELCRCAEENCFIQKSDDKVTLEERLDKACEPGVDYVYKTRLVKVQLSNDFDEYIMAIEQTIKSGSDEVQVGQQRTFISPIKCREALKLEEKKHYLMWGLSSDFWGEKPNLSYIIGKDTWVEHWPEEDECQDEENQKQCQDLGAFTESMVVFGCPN

Take `CC[C@H](C)[C@H](NC(C)=O)C(=O)N[C@H]1CSCC[C@@H](C(=O)N(C)[C@H](C(N)=O)[C@@H](C)CC)NC(=O)[C@H](CCCNC(=N)N)NC(=O)[C@H](Cc2c[nH]cn2)NC(=O)[C@H](C)NC(=O)CN(C)C(=O)[C@H](Cc2c[nH]c3ccccc23)NC(=O)[C@H](CC(=O)O)NC(=O)[C@H](CCC(N)=O)NC(=O)[C@H](Cc2cn(C)c3ccccc23)NC(=O)[C@H](C(C)C)NC1=O` [Delta-Cth CP20, Ac-Ic[CV(^1-MeW)QDW(^N-MeG)AHRC](^N-MeI)-NH2] (Ac-ICV[Trp(1-Me)]QDW[Sar]AHR[Abu(4-yl)][NMeI]-NH2; thioether 2-12): the kd at C3b is 1.5 ± 0.4 10^−2 s^−1. In addition, in assay [1], the “relative activity (rank order) in inhibition of antigen-antibody complex-initiated complement activation” value is recorded as “CP20>delta-Cth CP20>4W9A>delta-Cth>gamma-Cth” and the IC50 was found to be 260 ± 90 nM.
On to `CC[C@H](C)[C@H](NC(C)=O)C(=O)N[C@H]1CCSC[C@@H](C(=O)N[C@H](C(N)=O)[C@@H](C)O)NC(=O)[C@H](CCCNC(=N)N)NC(=O)[C@H](Cc2c[nH]cn2)NC(=O)[C@H](C)NC(=O)CNC(=O)[C@H](Cc2c[nH]c3ccccc23)NC(=O)[C@H](CC(=O)O)NC(=O)[C@H](CCC(N)=O)NC(=O)[C@H](Cc2c[nH]c3ccccc23)NC(=O)[C@H](C(C)C)NC1=O` [Gamma-Cth] (Ac-I[Abu(4-yl)]VWQDWGAHRCT-NH2; thioether 2-12), for which the kd on C3b is given as 46.8 ± 5.7 10^−2 s^−1.
In the case of “CP20 compstatin analog (disulfide control) (peptide)”, in the assay with Biotinylated C3b, the Kd is 2.4 nM, the koff came out at 0.004 s⁻¹ and the kon turned out to be 1.86e+06 M⁻¹ s⁻¹.
Take `CC[C@H](C)[C@H](NC(C)=O)C(=O)N[C@H]1CSSC[C@@H](C(=O)N(C)[C@H](C(N)=O)[C@@H](C)CC)NC(=O)[C@H](CCCNC(=N)N)NC(=O)[C@H](Cc2c[nH]cn2)NC(=O)[C@H](C)NC(=O)CN(C)C(=O)[C@H](Cc2c[nH]c3ccccc23)NC(=O)[C@H](CC(=O)O)NC(=O)[C@H](CCC(N)=O)NC(=O)[C@H](Cc2cn(C)c3ccccc23)NC(=O)[C@H](C(C)C)NC1=O` [CP20, AC-Ic[CV(^1-MeW)QDW(^N-MeG)AHRC](^N-MeI)-NH2, reference compound]: at C3b, the kd is given as 0.4 ± 0.1 10^−2 s^−1. Besides, in assay [1], the “relative activity (rank order) in inhibition of antigen-antibody complex-initiated complement activation” value was “CP20>delta-Cth CP20>4W9A>delta-Cth>gamma-Cth” and the IC50 is 130 ± 50 nM.
Regarding `CC[C@H](C)[C@H](NC(C)=O)C(=O)N[C@H]1CSCC[C@@H](C(=O)N[C@H](C(N)=O)[C@@H](C)O)NC(=O)[C@H](CCCNC(=N)N)NC(=O)[C@H](Cc2c[nH]cn2)NC(=O)[C@H](C)NC(=O)CNC(=O)[C@H](Cc2c[nH]c3ccccc23)NC(=O)[C@H](CC(=O)O)NC(=O)[C@H](CCC(N)=O)NC(=O)[C@H](Cc2c[nH]c3ccccc23)NC(=O)[C@H](C(C)C)NC1=O` [Delta-Cth] (Ac-ICVWQDWGAHR[Abu(4-yl)]T-NH2; thioether 2-12), on C3b, the kd is given as 11 ± 1.9 10^−2 s^−1.

B1: CP20 compstatin analog (disulfide control) (peptide)
peptide: Ac-ICV[Trp(1-Me)]QDW[Sar]AHRC[NMeI]-NH2
modifications: disulfide 2-12
SMILES: CC[C@H](C)[C@H](NC(C)=O)C(=O)N[C@H]1CSSC[C@@H](C(=O)N(C)[C@H](C(N)=O)[C@@H](C)CC)NC(=O)[C@H](CCCNC(=N)N)NC(=O)[C@H](Cc2c[nH]cn2)NC(=O)[C@H](C)NC(=O)CN(C)C(=O)[C@H](Cc2c[nH]c3ccccc23)NC(=O)[C@H](CC(=O)O)NC(=O)[C@H](CCC(N)=O)NC(=O)[C@H](Cc2cn(C)c3ccccc23)NC(=O)[C@H](C(C)C)NC1=O
B1: the “IC50 (read off the curve)” value in assay [2] is approximately 100 nM. The “IC50, inhibition of antigen-antibody complex-initiated (classical pathway) complement activation, C3b deposition ELISA” value in assay [3] was determined as 130 nM.

B2: CP20 delta-Cth (delta-cystathionine CP20 compstatin analog) (peptide)
peptide: ICVWQDWGAHRCI
modifications: N-terminal acetyl (Ac-Ile1); 1-methyl-Trp at position 4; N-methyl-Gly at position 8; N-methyl-Ile at position 13; C-terminal amide (-NH2); C2-C12 thioether bond forming delta-cystathionine
Regarding B2, in assay [2], the “IC50 (read off the curve)” value is approximately 300 nM. Further, in assay [3], the “IC50, inhibition of antigen-antibody complex-initiated (classical pathway) complement activation, C3b deposition ELISA” value was determined as 260 nM.
